Assay results from patent US5608091A, “Quinizarin compound, method for production thereof, and use therefor” (Nippon Shokubai Co., Ltd., priority 1993, dated 1997).

What was measured:
Format in all cases: physicochemical
[1] = Visible absorption spectrum (λmax, ε); details: for ε: in M-1 cm-1 (unit assumed)
Color tone of the dye = details: Tables 1-9
[2] = Solubility in toluene and methyl ethyl ketone, three-point scale
Source text: In these tables, the solubility is rated on the three-point scale, wherein Δ stands for a solubility of less than 1% by weight, .largecircle. for a solubility in the approximate range of 1 to 3% by weight, and .circleincircle. for a solubility of not less than 3% by weight.

Compound | λ max ([1]; in chloroform) [nm] | ε ([1]; in chloroform, at λ max) | Color tone (Color tone of the dye) | λ max ([1]; in methanol) [nm] | ε ([1]; in methanol) | λ max ([1]; in toluene) [nm] | ε ([1]; in toluene) | Solubility ([2]; in toluene) | ε ([1]; in ethyl cellosolve) | Solubility in methyl ethyl ketone [2] | Solubility in toluene ([2]; in toluene)
CCOC(=O)c1cccc(Nc2c(F)c(F)c3c(c2F)C(=O)c2c(O)ccc(O)c2C3=O)c1 [(4)] | 527 | 15300 | Magenta | – | – | – | – | – | – | .largecircle. (a solubility in the approximate range of 1 to 3% by weight) | .largecircle. (a solubility in the approximate range of 1 to 3% by weight)
CCCCOC(=O)c1ccccc1Nc1c(F)c(F)c2c(c1F)C(=O)c1c(O)ccc(O)c1C2=O [(5)] | 530 | 8600 | Magenta | – | – | – | – | – | – | .circleincircle. (a solubility of not less than 3% by weight) | .circleincircle. (a solubility of not less than 3% by weight)
CCCCCCCCOC(=O)c1cccc(Nc2c(F)c(F)c3c(c2F)C(=O)c2c(O)ccc(O)c2C3=O)c1 [(8)] | 526 | 17600 | Magenta | – | – | – | – | – | – | .largecircle. (a solubility in the approximate range of 1 to 3% by weight) | .largecircle. (a solubility in the approximate range of 1 to 3% by weight)
COc1ccccc1Nc1c(F)c(F)c2c(c1F)C(=O)c1c(O)ccc(O)c1C2=O [(14)] | 557 | 15300 | Purple | – | – | – | – | – | – | .largecircle. (a solubility in the approximate range of 1 to 3% by weight) | .largecircle. (a solubility in the approximate range of 1 to 3% by weight)
CCc1cccc(CC)c1Nc1c(F)c(F)c2c(c1F)C(=O)c1c(O)ccc(O)c1C2=O [(18)] | 528 | 14200 | Magenta | – | – | – | – | – | – | .largecircle. (a solubility in the approximate range of 1 to 3% by weight) | .circleincircle. (a solubility of not less than 3% by weight)
CC(C)c1cccc(C(C)C)c1Nc1c(F)c(F)c2c(c1F)C(=O)c1c(O)ccc(O)c1C2=O [(25)] | 530 | 12800 | Magenta | – | – | – | – | – | – | .largecircle. (a solubility in the approximate range of 1 to 3% by weight) | .circleincircle. (a solubility of not less than 3% by weight)
CCCCCCCCOc1c(F)c2c(c(F)c1Nc1cccc(C(=O)OCC)c1)C(=O)c1c(O)ccc(O)c1C2=O [(34)] | 531 | 12400 | Magenta | – | – | – | – | – | – | .circleincircle. (a solubility of not less than 3% by weight) | .circleincircle. (a solubility of not less than 3% by weight)
CC(C)c1cccc(C(C)C)c1Nc1ccc2c(c1)C(=O)c1c(O)ccc(O)c1C2=O [(99)] | – | – | – | – | – | 560 | 14850 | Not less than 3 % by weight | – | – | –
CCOC(=O)c1cccc(Nc2c(F)c3c(c(F)c2Sc2ccccc2)C(=O)c2c(O)ccc(O)c2C3=O)c1 [(115)] | 540 | 17000 | – | – | – | – | – | – | – | – | –
CCCCNc1c(F)c(F)c2c(c1F)C(=O)c1c(O)ccc(O)c1C2=O [(117)] | 533 | 17900 | Magenta | – | – | – | – | – | – | .largecircle. (a solubility in the approximate range of 1 to 3% by weight) | .largecircle. (a solubility in the approximate range of 1 to 3% by weight)
O=C1c2c(O)ccc(O)c2C(=O)c2c(F)c(NC3CCCCC3)c(F)c(F)c21 [(119)] | 536 | 24500 | Magenta | – | – | – | – | – | – | .largecircle. (a solubility in the approximate range of 1 to 3% by weight) | .largecircle. (a solubility in the approximate range of 1 to 3% by weight)
CCCCOC(=O)c1ccccc1Nc1c(F)c2c(c(F)c1Nc1ccccc1C(=O)OCCCC)C(=O)c1c(O)ccc(O)c1C2=O [(122)] | 614 | 14700 | Blue | – | – | – | – | – | – | .largecircle. (a solubility in the approximate range of 1 to 3% by weight) | .largecircle. (a solubility in the approximate range of 1 to 3% by weight)
CC(C)c1cccc(C(C)C)c1Nc1c(F)c2c(c(Nc3c(C(C)C)cccc3C(C)C)c1Nc1c(C(C)C)cccc1C(C)C)C(=O)c1c(O)ccc(O)c1C2=O [Dye (245), 5,6,7-tris(2,6-diisopropylanilino)-8-fluoroquinizarin] | – | – | – | – | – | – | – | – | 29200 | – | –

Further lines, with some results ahead:

λ max ([1]; in chloroform) [nm] | ε ([1]; in chloroform, at λ max) | Color tone (Color tone of the dye) | λ max ([1]; in methanol) [nm] | ε ([1]; in methanol) | λ max ([1]; in toluene) [nm] | ε ([1]; in toluene) | Solubility ([2]; in toluene) | ε ([1]; in ethyl cellosolve) | Compound | Solubility in methyl ethyl ketone [2] | Solubility in toluene ([2]; in toluene)
533 | 14800 | Magenta | – | – | – | – | – | – | O=C1c2c(O)ccc(O)c2C(=O)c2c(F)c(Nc3ccccc3)c(F)c(F)c21 [(1)] | Δ (a solubility of less than 1% by weight) | .largecircle. (a solubility in the approximate range of 1 to 3% by weight)
528 | 17900 | Magenta | – | – | – | – | – | – | CCCCOC(=O)c1ccc(Nc2c(F)c(F)c3c(c2F)C(=O)c2c(O)ccc(O)c2C3=O)cc1 [(6)] | .largecircle. (a solubility in the approximate range of 1 to 3% by weight) | .largecircle. (a solubility in the approximate range of 1 to 3% by weight)
523 | 20600 | Magenta | – | – | – | – | – | – | N#Cc1ccc(Nc2c(F)c(F)c3c(c2F)C(=O)c2c(O)ccc(O)c2C3=O)cc1 [(10)] | Δ (a solubility of less than 1% by weight) | Δ (a solubility of less than 1% by weight)
521 | 16300 | Magenta | – | – | – | – | – | – | O=C1c2c(O)ccc(O)c2C(=O)c2c(F)c(Nc3ccc([N+](=O)[O-])cc3)c(F)c(F)c21 [(12)] | Δ (a solubility of less than 1% by weight) | Δ (a solubility of less than 1% by weight)
540 | 11900 | Magenta | – | – | – | – | – | – | CC(C)(C)c1ccc(Nc2c(F)c(F)c3c(c2F)C(=O)c2c(O)ccc(O)c2C3=O)cc1 [(13)] | .largecircle. (a solubility in the approximate range of 1 to 3% by weight) | .largecircle. (a solubility in the approximate range of 1 to 3% by weight)
542 | 10200 | Magenta | – | – | – | – | – | – | COc1ccc(Nc2c(F)c(F)c3c(c2F)C(=O)c2c(O)ccc(O)c2C3=O)cc1 [(15)] | .largecircle. (a solubility in the approximate range of 1 to 3% by weight) | .largecircle. (a solubility in the approximate range of 1 to 3% by weight)
532 | 16300 | Magenta | – | – | – | – | – | – | COc1cccc(Nc2c(F)c(F)c3c(c2F)C(=O)c2c(O)ccc(O)c2C3=O)c1 [(16)] | .largecircle. (a solubility in the approximate range of 1 to 3% by weight) | .largecircle. (a solubility in the approximate range of 1 to 3% by weight)
– | – | – | 521.5 | 10600 | – | – | – | – | O=C1c2c(O)ccc(O)c2C(=O)c2c(F)c(Nc3ccc(S(=O)(=O)O)cc3)c(F)c(F)c21 [(27)] | – | –
521.0 | 17900 | – | – | – | – | – | – | – | O=C1c2c(O)ccc(O)c2C(=O)c2c(F)c(Oc3ccccc3)c(Nc3c(Cl)cccc3Cl)c(F)c21 [(110)] | – | –
648 | 19800 | Cyan | – | – | – | – | – | – | O=C1c2c(O)ccc(O)c2C(=O)c2c(F)c(Nc3ccccc3)c(Nc3ccccc3)c(F)c21 [(120)] | Δ (a solubility of less than 1% by weight) | Δ (a solubility of less than 1% by weight)
644 | 20100 | Cyan | – | – | – | – | – | – | CCOC(=O)c1cccc(Nc2c(F)c3c(c(F)c2Nc2cccc(C(=O)OCC)c2)C(=O)c2c(O)ccc(O)c2C3=O)c1 [(121)] | .largecircle. (a solubility in the approximate range of 1 to 3% by weight) | .largecircle. (a solubility in the approximate range of 1 to 3% by weight)
605 | 16600 | Blue | – | – | – | – | – | – | N#Cc1ccc(Nc2c(F)c3c(c(F)c2Nc2ccc(C#N)cc2)C(=O)c2c(O)ccc(O)c2C3=O)cc1 [(126)] | Δ (a solubility of less than 1% by weight) | Δ (a solubility of less than 1% by weight)
660 | 26700 | Cyan | – | – | – | – | – | – | CC(C)(C)c1ccc(Nc2c(F)c3c(c(F)c2Nc2ccc(C(C)(C)C)cc2)C(=O)c2c(O)ccc(O)c2C3=O)cc1 [(130)] | .largecircle. (a solubility in the approximate range of 1 to 3% by weight) | .largecircle. (a solubility in the approximate range of 1 to 3% by weight)
661 | 15600 | Cyan | – | – | – | – | – | – | COc1ccccc1Nc1c(F)c2c(c(F)c1Nc1ccccc1OC)C(=O)c1c(O)ccc(O)c1C2=O [(131)] | .largecircle. (a solubility in the approximate range of 1 to 3% by weight) | .largecircle. (a solubility in the approximate range of 1 to 3% by weight)
649 | 13400 | Cyan | – | – | – | – | – | – | COc1ccc(Nc2c(F)c3c(c(F)c2Nc2ccc(OC)cc2)C(=O)c2c(O)ccc(O)c2C3=O)cc1 [(132)] | .largecircle. (a solubility in the approximate range of 1 to 3% by weight) | .largecircle. (a solubility in the approximate range of 1 to 3% by weight)
